This note sets out measurements from patent US10730868B2, “Bicyclic heteroaryl substituted compounds” (BRISTOL-MYERS SQUIBB COMPANY, priority 2016, dated 2020).

Like-named read-outs stand apart in the source and are kept apart here.

This assay concerns the target PAR4 (Homo sapiens (Human), UniProt Q96RI0). Briefly: PAR4 FLIPR assay (antagonism of agonist-peptide-induced calcium mobilization). It is filed as cell-based. To be noted: PAR4-expressing HEK293 cells, read-out: PAR4 FLTPR assay (IC50). From the text:
The Fluorometric Imaging Plate Reader (FLIPR) assay is an exemplary in vitro assay for measuring the activity of the PAR4 antagonists of the present invention. In this assay, intracellular calcium mobilization is induced in PAR4 expressing cells by a PAR4 agonist and calcium mobilization is monitored.
HEK293 cells stably expressing PAR4 were generated by a standard method of transfection of human PAR4 (F2R23) cDNA expression vector and selected based on PAR4 protein expression or mRNA expression. […] These cells also express endogenous PAR1 and can elicit calcium signal upon stimulation with PAR1 agonist peptide. Therefore, the same cells were also used to determine selectivity against PAR1 and agonist activity for both receptors. Cells from HEK293 PAR4 Clone 1.2A (BMS Arctic ID 383940) were propagated and used for calcium mobilization studies.
FLIPR-based calcium mobilization assay in HEK293 cells was used to measure PAR4 antagonism agonism, and selectivity against PAR1. The activity of the PAR4 antagonists of the present invention were tested in PAR4 expressing cells by monitoring H-Ala-Phe(4-F)-[…]NH2-induced intracellular calcium mobilization. Counter screens for agonist activity and PAR1 antagonist activity were also performed. Briefly, PAR/PAR4-expressing HEK293 cells were grown in DMEM (Life Technology, Grand Island, N.Y.) containing 10% heat-inactivated FBS, 1% Penicillin-Streptomycin, 10 μg/mL blasticidin, and 100 μg/mL Zeocin at 37° C. with 5% CO2. Cells were plated overnight prior to the experiment in a black 384-well Purecoat Amine clear bottom plate (Becton Dickinson Biosciences, San Jose, Calif.) at 10,000 cells/well in 30 μL growth medium and incubated in a humidified chamber at 37° C. with 5% CO2 overnight. Prior to compound addition, the cell medium was replaced with 40 μL of 1× calcium and magnesium-containing Hank's Balanced Saline Solution (HBSS) (with 20 mM HEPES) and 1:1000 diluted fluorescent calcium indicator (Codex Biosolutions, Gaithersburg, Md.). After a 30 minute incubation period at 37° C. and a further 30 minute incubation and equilibration period at room temperature, 20 μL test compound (diluted in 1×HBSS buffer) was added at various concentrations at 0.17% dimethyl sulfoxide (DMSO) final concentration. Changes in fluorescence intensity were measured using a Functional Drug Screening System (FDSS, Hamamatsu, Japan) to determine agonist activities. The cells were then incubated for 30 minutes at room temperature followed by addition of 20 μL of agonist peptide for antagonist activity measurement. […] Compound potency was derived from 11-point concentration-response curves.

Where [1] appears, read: H-Ala-Phe(4-F)-[…]NH2-induced intracellular calcium mobilization.
Where [2] appears, read: H-Ala-Phe(4-F)-Pro-Gly-Trp-Leu-Val-Lys-Asn-Gly-NH2-induced intracellular calcium mobilization.

PAR4, sequence (Q96RI0 18-385): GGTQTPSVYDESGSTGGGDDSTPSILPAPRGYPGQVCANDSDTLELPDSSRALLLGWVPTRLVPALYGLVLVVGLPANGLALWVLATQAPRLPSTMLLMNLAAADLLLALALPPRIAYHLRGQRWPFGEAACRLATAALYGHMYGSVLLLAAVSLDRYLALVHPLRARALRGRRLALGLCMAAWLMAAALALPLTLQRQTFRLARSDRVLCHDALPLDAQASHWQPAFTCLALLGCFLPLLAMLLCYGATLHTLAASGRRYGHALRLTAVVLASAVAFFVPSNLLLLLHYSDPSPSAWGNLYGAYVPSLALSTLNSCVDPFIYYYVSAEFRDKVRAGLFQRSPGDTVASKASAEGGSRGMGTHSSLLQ

For `COc1cnc2c(-c3nc4cc(F)c(O[C@@H]5CCCC[C@@H]5OC(=O)Nc5cccnc5)cc4s3)cc(C)cc2n1` (single isomer, unassigned; enantiomer 2) [Example 59, cis-2-((5-fluoro-2-(2-methoxy-7-methylquinoxalin-5-yl)benzo[d]thiazol-6-yl)oxy)cyclohexyl pyridin-3-ylcarbamate (Enantiomer 2)], under setting [1], the IC50 was 77 nM.

On to `COc1cnc2c(-c3nc4cc(F)c(O[C@H]5CCCC[C@H]5OC(=O)Nc5cccnc5)cc4s3)cc(C)cc2n1` (single isomer, unassigned; enantiomer 1) [Example 58, cis-2-((5-fluoro-2-(2-methoxy-7-methylquinoxalin-5-yl)benzo[d]thiazol-6-yl)oxy)cyclohexyl pyridin-3-ylcarbamate (Enantiomer 1)], for which, under setting [1], the IC50 was 1.4 nM.

As for `COc1cnc2c(-c3nc4cc(F)c(O[C@H]5CC(F)(F)CC[C@H]5OC(=O)Nc5ccc(CO)nc5)cc4s3)cc(C)cc2n1` [Example 6], the IC50 under setting [2] is 0.76 nM.

Turning to `COc1ccc(NC(=O)O[C@@H]2CCC[C@@H]2Oc2cc3sc(-c4cc(C)cc5nc(OC)cnc45)nc3cc2F)nc1` [Example 24], the IC50 under setting [2] turned out to be 7.8 nM.

For the compound `COc1cnc2c(-c3nc4cc(F)c(O[C@@H]5CC(C)(C)C[C@@H]5OC(=O)Nc5cnc(C)nc5)cc4s3)cc(C)cc2n1` (single isomer, unassigned; enantiomer 2) [Example 85, (cis)-2-((5-fluoro-2-(2-methoxy-7-methylquinoxalin-5-yl)benzo[d]thiazol-6-yl)oxy)-4,4-dimethylcyclopentyl (2-methylpyrimidin-5-yl)carbamate Enantiomer 2], the IC50 under setting [1] amounted to 41 nM.

As for `COc1cnc2c(-c3nc4cc(F)c(O[C@@H]5CC(F)(F)C[C@@H]5OC(=O)Nc5cnc(C)nc5)cc4s3)cc(C)cc2n1` (racemic) [Example 97, rac-cis-4,4-difluoro-2-((5-fluoro-2-(2-methoxy-7-methylquinoxalin-5-yl)benzo[d]thiazol-6-yl)oxy)cyclopentyl (2-methylpyrimidin-5-yl)carbamate)], the IC50 under setting [1] turned out to be 9.2 nM.

On to `COc1ccc(NC(=O)O[C@@H]2CCC[C@@H]2Oc2cc3sc(-c4cc(C)cc5nc(OC)cnc45)nc3cc2F)cn1` (racemic) [Example 33], for which the IC50 under setting [1] stood at 3.1 nM.

Turning to `COc1cnc2c(-c3nc4cc(F)c(O[C@H]5CC(F)(F)C[C@H]5OC(=O)Nc5cnc(C)nc5)cc4s3)cc(C)cc2n1` [Example 100], the IC50 under setting [2] stood at 1.3 nM.

Regarding `COc1cnc2c(-c3nc4cc(F)c(O[C@H]5CC(F)(F)CC[C@H]5OC(=O)Nc5cnc(OCCOP(=O)(O)O)nc5)cc4s3)cc(C)cc2n1` [Example 19, (1R,2S)-4,4-difluoro-2-((5-fluoro-2-(2-methoxy-7-methylquinoxalin-5-yl)benzo[d]thiazol-6-yl)oxy)cyclohexyl (2-(2-(phosphonooxy)ethoxy)pyrimidin-5-yl)carbamate], the IC50 under setting [2] was determined as 1 nM.

With `COc1cnc2c(-c3nc4cc(F)c(O[C@H]5CC(F)(F)CC[C@H]5OC(=O)Nc5cnc(CO)nc5)cc4s3)cc(C)cc2n1` [Example 10], the IC50 under setting [2] worked out at 23 nM.

On to `COc1ccc(NC(=O)O[C@H]2CCC(F)(F)CC2Oc2cc3sc(-c4cc(C)cc5nc(OC)cnc45)nc3cc2F)cn1` (mixture of isomers) [Example 14], for which the IC50 under setting [1] worked out at 2.4 nM.

For the compound `COc1cnc2c(-c3nc4cc(F)c(OC5CC(F)(F)CC[C@@H]5OC(=O)Nc5cnc(OC)nc5)cc4s3)cc(C)cc2n1` (mixture of isomers) [Example 11], under setting [1], the IC50 was 2.8 nM.

Take `CCOc1cnc2c(-c3nc4cc(F)c(O[C@@H]5CC[C@@H]5OC(=O)Nc5cnc(OCCO)nc5)cc4s3)cc(Cl)cc2c1` [Example 77]: under setting [2], the IC50 was determined as 9.2 nM.

In the case of `COc1ccc(NC(=O)O[C@H]2CCCC[C@H]2Oc2cc3sc(-c4cc(C)cc5nc(OC)cnc45)nc3cc2F)cn1` (racemic) [Example 57, rac-cis-2-((5-fluoro-2-(2-methoxy-7-methylquinoxalin-5-yl)benzo[d]thiazol-6-yl)oxy) cyclohexyl (6-methoxypyridin-3-yl)carbamate], the IC50 under setting [1] was determined as 6.1 nM.

As for `COc1cnc2c(-c3nc4cc(F)c(OC5CC(F)(F)CC[C@@H]5OC(=O)Nc5cnc(C)nc5)cc4s3)cc(C)cc2n1` (mixture of isomers) [Example 7], under setting [1], the IC50 was found to be 0.67 nM.

Turning to `COc1cnc2c(-c3nc4cc(F)c(O[C@H]5CCC[C@H]5OC(=O)Nc5ccc(CO)nc5)cc4s3)cc(C)cc2n1` [Example 31], under setting [2], the IC50 amounted to 1.1 nM.

Turning to `COc1ccc(NC(=O)O[C@H]2CC[C@H]2Oc2cc3sc(-c4cc(C)cc5nc(OC)cnc45)nc3cc2F)cn1` (racemic) [Example 66], the IC50 under setting [1] turned out to be 0.79 nM.

Turning to `COc1cnc2c(-c3nc4cc(F)c(O[C@@H]5CC[C@@H]5OC(=O)Nc5cnc(OCCO)nc5)cc4s3)cc(Cl)cc2n1` [Example 78], the IC50 under setting [2] came out at 9.7 nM.

Regarding `COc1ccc(NC(=O)O[C@@H]2CCC[C@@H]2Oc2cc3sc(-c4cc(C)cc5nc(OC)cnc45)nc3cc2F)cn1` [Example 22, (1R,2S)-2-((5-fluoro-2-(2-methoxy-7-methylquinoxalin-5-yl)benzo[d]thiazol-6-yl)oxy)cyclopentyl (6-methoxy pyridin-3-yl)carbamate], under setting [1], the 50% inhibitory concentration (IC50) came to 2.4 nM.

For `COc1cnc2c(-c3nc4cc(F)c(O[C@@H]5CC[C@@H]5OC(=O)Nc5cnc(OCCO)nc5)cc4s3)cc(C#N)cc2n1` [Example 80], under setting [2], the IC50 was 7 nM.

As to `COc1cnc2c(-c3nc4cc(F)c(O[C@@H]5CCC[C@@H]5OC(=O)Nc5cnc(C)nc5)cc4s3)cc(C#N)cc2n1` (racemic) [Example 46, rac-cis-2-((2-(7-cyano-2-methoxyquinoxalin-5-yl)-5-fluorobenzo[d]thiazol-6-yl)oxy)cyclopentyl (2-methylpyrimidin-5-yl)carbamate], the IC50 under setting [1] came to 2 nM.

On to `COc1cnc2c(-c3nc4cc(F)c(OC5CCC[C@@H]5O)cc4s3)cc(C)cc2n1` (mixture of isomers) [Example 21, rac-cis-2-((5-fluoro-2-(2-methoxy-7-methylquinoxalin-5-yl)benzo[c]thiazol-6-yl)oxy)cyclopentanol], for which the half-inhibitory concentration (IC50) under setting [1] came out at 470 nM.

`COc1cnc2c(-c3nc4cc(F)c(O[C@@H]5CCC[C@@H]5OC(=O)Nc5cncc(C#N)c5)cc4s3)cc(C#N)cc2n1` (racemic) [Example 45, rac-cis-2-((2-(7-cyano-2-methoxyquinoxalin-5-yl)-5-fluorobenzo[d]thiazol-6-yl)oxy)cyclopentyl (5-cyanopyridin-3-yl)carbamate]: the IC50 under setting [1] came to 2.2 nM.

With `COc1cnc2c(-c3nc4cc(F)c(O[C@@H]5CCC(C)(C)[C@@H]5OC(=O)Nc5cnc(C)nc5)cc4s3)cc(C)cc2n1` (racemic) [Example 104, rac-cis-5-((5-fluoro-2-(2-methoxy-7-methylquinoxalin-5-yl)benzo[d]thiazol-6-yl)oxy)-2,2-dimethylcyclopentyl (2-methylpyrimidin-5-yl)carbamate], the 50% inhibitory concentration (IC50) under setting [1] came out at 2.4 nM.

As for `COc1cnc2c(-c3nc4cc(F)c(O[C@@H]5CC(F)(F)C[C@@H]5OC(=O)Nc5cnc(C)nc5)cc4s3)cc(C)cc2n1` (stereo in doubt) [Example 99, (cis)-4,4-difluoro-2-((5-fluoro-2-(2-methoxy-7-methylquinoxalin-5-yl)benzo[d]thiazol-6-yl)oxy)cyclopentyl (2-methylpyrimidin-5-yl)carbamate (Homochiral)], the IC50 under setting [2] amounted to 32 nM.

With `COc1cnc2c(-c3nc4cc(F)c(O[C@H]5CC[C@H]5OC(=O)Nc5cnc(OC[C@@H](C)O)nc5)cc4s3)cc(C)cc2n1` [Example 63], the concentration for half-maximal inhibition (IC50) under setting [2] is 7.4 nM.

Regarding `COc1cnc2c(-c3nc4cc(F)c(O[C@@H]5CC(C)(C)C[C@@H]5OC(=O)Nc5cnc(C)nc5)cc4s3)cc(C)cc2n1` (racemic) [Example 83], the IC50 under setting [1] worked out at 6.8 nM.

In the case of `COc1cnc2c(-c3nc4cc(F)c(O[C@H]5CC[C@H]5OC(=O)Nc5cnc(CCO)nc5)cc4s3)cc(C)cc2n1` [Example 65], under setting [2], the IC50 amounted to 3.7 nM.

Turning to `COc1cnc2c(-c3nc4cc(F)c(O[C@@H]5CCC[C@@H]5OC(=O)Nc5cccnc5)cc4s3)cc(CO)cc2n1` (racemic) [Example 44, rac-cis-2-((5-fluoro-2-(7-(hydroxymethyl)-2-methoxyquinoxalin-5-yl)benzo[d]thiazol-6-yl)oxy)cyclopentyl pyridin-3-ylcarbamate], the IC50 under setting [1] came to 25 nM.

As to `COc1cnc2c(-c3nc4cc(F)c(O[C@@H]5CC[C@@H]5OC(=O)Nc5cnc(C)nc5)cc4s3)cc(C)cc2n1` [Example 67], the IC50 under setting [2] turned out to be 0.99 nM.

As a reminder, the IC50 is the midpoint of a concentration-inhibition curve.
